Results reported in US20210009564A1, “CALPAIN MODULATORS AND THERAPEUTIC USES THEREOF” (BLADE THERAPERTICS, INC., priority 2018, published 2021).

Experiments:
Human Calpain 9/NS1 = target: T1, Human Calpain 9/NS1 (Homo sapiens, UniProt O14815); assay: Calpain inhibition, continuous fluorescence (FRET substrate) assay, calpain 9; format: biochemical; conditions: SensoLyte 520 FRET substrate, 25C
T1 sequence (O14815 1-690): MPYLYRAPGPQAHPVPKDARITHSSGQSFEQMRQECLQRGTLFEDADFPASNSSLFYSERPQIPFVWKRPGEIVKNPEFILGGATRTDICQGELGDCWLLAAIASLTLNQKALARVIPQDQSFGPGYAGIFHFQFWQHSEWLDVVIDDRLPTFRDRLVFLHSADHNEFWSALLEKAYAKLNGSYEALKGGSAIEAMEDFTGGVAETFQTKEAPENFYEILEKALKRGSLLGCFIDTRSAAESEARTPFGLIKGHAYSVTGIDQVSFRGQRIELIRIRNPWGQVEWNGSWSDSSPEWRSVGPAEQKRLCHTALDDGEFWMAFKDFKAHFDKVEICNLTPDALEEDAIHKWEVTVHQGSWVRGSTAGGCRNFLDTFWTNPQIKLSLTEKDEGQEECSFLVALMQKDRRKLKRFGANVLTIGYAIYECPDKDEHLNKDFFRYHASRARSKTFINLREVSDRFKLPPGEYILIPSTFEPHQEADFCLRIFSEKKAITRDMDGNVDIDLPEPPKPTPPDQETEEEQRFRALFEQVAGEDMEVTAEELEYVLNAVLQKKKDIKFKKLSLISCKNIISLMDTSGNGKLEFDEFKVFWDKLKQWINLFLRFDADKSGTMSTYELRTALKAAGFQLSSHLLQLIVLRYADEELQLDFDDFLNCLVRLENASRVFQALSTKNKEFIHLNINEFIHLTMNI
T1 sequence (P04632 1-268 partner): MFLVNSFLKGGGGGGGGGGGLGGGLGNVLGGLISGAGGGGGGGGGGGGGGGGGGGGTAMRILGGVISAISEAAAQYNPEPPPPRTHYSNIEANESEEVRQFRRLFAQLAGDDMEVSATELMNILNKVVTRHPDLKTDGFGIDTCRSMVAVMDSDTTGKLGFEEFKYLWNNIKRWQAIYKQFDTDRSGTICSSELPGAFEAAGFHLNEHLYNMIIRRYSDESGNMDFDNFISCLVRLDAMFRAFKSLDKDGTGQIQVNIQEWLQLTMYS
Summary of the method: (§1)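 Continuous FRET read-out (ex 490/em 520 nm) of 5-FAM/QXL 520 substrate cleavage, started by adding substrate with CaCl2 for in-situ activation after enzyme–inhibitor preincubation at 25 °C. Buffer was Tris 50 mM pH 7.5, NaCl 100 mM, DTT 1 mM. IC50 fitted (4-parameter) from rates over 1-5 min.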

[1] = test system: Calpain activity in SH-SY5Y cells; assay: SH-SY5Y spectrin breakdown product (SBDP-150) western blot assay; format: cell-based; conditions: Homo sapiens; SH-SY5Y cells, 25 uM A23187, SBDP-150 western blot; read-out: SH-SY5Y Spectrin IC50
[2] = test system: Calpain activity in SH-SY5Y cells; assay: SH-SY5Y Suc-LLVY-AMC fluorescence assay; format: cell-based; conditions: Homo sapiens; SH-SY5Y cells, 100 uM Suc-LLVY-AMC; read-out: SH-SY5Y + AMC IC50
Human Calpain 2/NS1 = target: T2, Human Calpain 2/NS1 (Homo sapiens, UniProt P17655); assay: Calpain inhibition, continuous fluorescence (FRET substrate) assay, calpain 2; format: biochemical; conditions: SensoLyte 520 FRET substrate, 25C
T2 sequence (P17655 1-700): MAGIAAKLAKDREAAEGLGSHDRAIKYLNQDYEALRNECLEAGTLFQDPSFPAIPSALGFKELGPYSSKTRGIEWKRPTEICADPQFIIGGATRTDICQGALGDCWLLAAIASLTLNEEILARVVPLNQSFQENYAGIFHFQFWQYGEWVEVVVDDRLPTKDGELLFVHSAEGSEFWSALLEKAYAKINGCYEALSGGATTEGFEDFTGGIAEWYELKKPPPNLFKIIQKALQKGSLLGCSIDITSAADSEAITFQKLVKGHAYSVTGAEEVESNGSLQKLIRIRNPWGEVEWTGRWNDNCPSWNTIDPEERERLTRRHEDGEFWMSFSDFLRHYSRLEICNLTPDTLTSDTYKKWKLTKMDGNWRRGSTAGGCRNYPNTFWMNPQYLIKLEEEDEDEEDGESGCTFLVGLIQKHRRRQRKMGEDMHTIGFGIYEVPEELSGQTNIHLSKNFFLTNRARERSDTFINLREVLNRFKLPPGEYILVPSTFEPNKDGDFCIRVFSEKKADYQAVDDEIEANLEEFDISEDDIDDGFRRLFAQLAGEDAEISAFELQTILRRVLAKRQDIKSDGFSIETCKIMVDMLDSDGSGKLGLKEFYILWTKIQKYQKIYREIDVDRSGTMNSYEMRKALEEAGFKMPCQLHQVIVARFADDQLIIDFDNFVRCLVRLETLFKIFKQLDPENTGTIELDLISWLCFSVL
T2 sequence (P04632 1-268 partner): T1 sequence (P04632 1-268 partner)
Summary of the method: as §1

Human Calpain 1/NS1 = target: T3, Human Calpain 1/NS1 (Homo sapiens, UniProt P07384); assay: Calpain inhibition, continuous fluorescence (FRET substrate) assay, calpain 1; format: biochemical; conditions: SensoLyte 520 FRET substrate, 25C
T3 sequence (P07384 1-714): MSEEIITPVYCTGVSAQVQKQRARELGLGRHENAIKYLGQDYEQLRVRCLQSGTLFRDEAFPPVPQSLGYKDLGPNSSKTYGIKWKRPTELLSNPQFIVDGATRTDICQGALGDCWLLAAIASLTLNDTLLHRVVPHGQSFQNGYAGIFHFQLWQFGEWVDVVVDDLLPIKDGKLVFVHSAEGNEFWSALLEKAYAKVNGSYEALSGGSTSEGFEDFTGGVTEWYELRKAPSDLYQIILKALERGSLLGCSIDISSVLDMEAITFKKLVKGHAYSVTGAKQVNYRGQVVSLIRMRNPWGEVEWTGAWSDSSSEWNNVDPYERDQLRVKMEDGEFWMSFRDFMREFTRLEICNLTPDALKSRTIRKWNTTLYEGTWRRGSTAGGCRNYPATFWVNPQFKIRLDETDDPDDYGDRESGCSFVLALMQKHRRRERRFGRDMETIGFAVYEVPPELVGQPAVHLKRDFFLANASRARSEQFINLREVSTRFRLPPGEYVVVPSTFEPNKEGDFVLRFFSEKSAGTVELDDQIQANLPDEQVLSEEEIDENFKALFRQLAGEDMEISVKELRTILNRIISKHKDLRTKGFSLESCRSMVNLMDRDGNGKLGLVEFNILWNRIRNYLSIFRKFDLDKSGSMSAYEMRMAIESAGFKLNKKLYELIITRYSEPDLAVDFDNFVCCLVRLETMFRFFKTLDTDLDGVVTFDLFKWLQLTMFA
T3 sequence (P04632 1-268 partner): T1 sequence (P04632 1-268 partner)
Summary of the method: as §1

Structure (SMILES) | IC50 (Human Calpain 9/NS1) [µM] | IC50 [1] [µM] | IC50 [2] [µM] | IC50 (Human Calpain 2/NS1) [µM] | IC50 (Human Calpain 1/NS1) [µM]
COc1cc2nccc(-c3nn(C)cc3C(=O)NC(Cc3ccccc3)C(=O)C(N)=O)c2cc1OC (stereo not shown) [Compound 37, N-(4-AMINO-3,4-DIOXO-1-PHENYLBUTAN-2-YL)-3-(6,7-DIMETHOXYQUINOLIN-4-YL)-1-METHYL-1H-PYRAZOLE-4-CARBOXAMIDE] | < 3 | > 25 | > 25 | < 3 | < 3
COC(=O)C(=O)C(Cc1ccccc1)NC(=O)c1nsnc1-c1ccccc1 (stereo not shown) [Compound 38, METHYL 2-OXO-4-PHENYL-3-(4-PHENYL-1,2,5-THIADIAZOLE-3-CARBOXAMIDO)BUTANOATE] | < 3 | < 10 | < 10 | < 3 | < 3
Cn1cc(C(=O)NC(Cc2ccccc2)C(=O)C(N)=O)c(-c2cccc3cn[nH]c23)n1 (stereo not shown) [Compound 39, N-(4-AMINO-3,4-DIOXO-1-PHENYLBUTAN-2-YL)-3-(1H-INDAZOL-7-YL)-1-METHYL-1H-PYRAZOLE-4-CARBOXAMIDE] | < 3 | < 10 | 10 to 25 | < 3 | < 3
COC(=O)C(=O)C(Cc1ccccc1)NC(=O)c1cn(C)nc1-c1ccccc1F (stereo not shown) [Compound 40, METHYL 3-(3-(2-FLUOROPHENYL)-1-METHYL-1H-PYRAZOLE-4-CARBOXAMIDO)-2-OXO-4-PHENYLBUTANOATE] | < 3 | > 25 | < 10 | < 3 | < 3

Second part, the molecule after the results:

IC50 (Human Calpain 9/NS1) [µM] | IC50 [1] [µM] | IC50 [2] [µM] | IC50 (Human Calpain 2/NS1) [µM] | IC50 (Human Calpain 1/NS1) [µM] | Structure (SMILES)
< 3 | 10 to 25 | 10 to 25 | < 3 | < 3 | Cn1cc(C(=O)NC(Cc2ccccc2)C(=O)C(N)=O)c(-c2cccc3c2cnn3C)n1 (stereo not shown) [Compound 32, N-(4-AMINO-3,4-DIOXO-1-PHENYLBUTAN-2-YL)-1-METHYL-3-(1-METHYL-1H-INDAZOL-4-YL)-1H-PYRAZOLE-4-CARBOXAMIDE]
< 3 | 10 to 25 | < 10 | < 3 | < 3 | Cn1ncc2cccc(-c3nn(C(F)F)cc3C(=O)NC(Cc3ccccc3)C(=O)C(N)=O)c21 (stereo not shown) [Compound 34, N-(4-AMINO-3,4-DIOXO-1-PHENYLBUTAN-2-YL)-1-(DIFLUOROMETHYL)-3-(1-METHYL-1H-INDAZOL-7-YL)-1H-PYRAZOLE-4-CARBOXAMIDE]
< 3 | < 10 | < 10 | < 3 | < 3 | Cn1cc(C(=O)NC(Cc2ccccc2)C(=O)C(N)=O)c(-c2cccc3oc(=O)[nH]c23)n1 (stereo not shown) [Compound 35, N-(4-AMINO-3,4-DIOXO-1-PHENYLBUTAN-2-YL)-1-METHYL-3-(2-OXO-2,3-DIHYDROBENZO[D]OXAZOL-4-YL)-1H-PYRAZOLE-4-CARBOXAMIDE]
< 3 | < 10 | < 10 | < 3 | < 3 | NC(=O)C(=O)C(Cc1ccccc1)NC(=O)c1cn(C(F)F)nc1-c1cc(Cl)oc1Cl (stereo not shown) [Compound 36, N-(4-AMINO-3,4-DIOXO-1-PHENYLBUTAN-2-YL)-3-(2,5-DICHLOROFURAN-3-YL)-1-(DIFLUOROMETHYL)-1H-PYRAZOLE-4-CARBOXAMIDE]
